Experimental data taken from patent publication US20040029908A1, “Tricyclo compounds, a process for their production and a pharmaceutical composition containing the same” (FUJISAWA PHARMACEUTICAL CO., LTD., priority 1984, published 2004).
Values after ≈ are worked out from the molar mass of the structure shown.

Columns and labels:
[1] = tested on: mouse MLR (C57BL/6 responder cells, mitomycin C treated BALB/C stimulator cells); test: Suppression of in vitro Mixed Lymphocyte Reaction (MLR), 3H-thymidine uptake; format: cell-based
Method: The MLR test was performed in microtiter plates, with each well containing 5 ×10^5 C57BL/6 responder cells (H-2^b ), 5 ×10^5 mitomycin C treated (25μg/ml mitomycin C at 37° C. for 30 minutes and washed three times with RPMI 1640 medium) BALB/C stimulator cells (H-2^d) in 0.2 ml RPMI 1640 medium supplemented with 10% fetal calf serum, 2mM sodium hydrogen carbonate, penicillin (50 unit/ml) and streptomycin (50 μg/ml) . The cells were incubated at 37 ° C. in humidified atmosphere of 5% carbon dioxide and 95% of air for 68 hours and pulsed with ^3H-thymidine (0.5 μCi) 4 hours before the cells were collected. The object compound of this invention was dissolved in ethanol and further diluted in RPMI 1640 medium and added to the cultures to give final concentrations of 0.1 μg/ml or less.

[2] = tested on: Aspergillus fumigatus IFO 5840; test: Antimicrobial activity, serial agar dilution method in Sabouraud agar; format: cell-based; details: IFO5840, 30° C., 24 hours
Method: (§1) Antimicrobial activities of the tricyclo compounds (I) against various fungi were determined by a serial agar dilution method in a Sabouraud agar. Minimum inhibitory concentrations (MIC) were expressed in terms of μg/ml after incubation at 30° C. for 24 hours.

Fusarium oxysporum = test: as above; format: cell-based; details: 30° C., 24 hours
Method: as §1

[3] = tested on: Type II Collagen-Induced-Arthritis in female Lewis rats; test: Type II Collagen-Induced-Arthritis in Rats; format: in vivo, rat; details: observation period of 3 weeks
Method: Collagen was dissolved in cold 0.01 M acetic acid at a concentration of 2 mg/ml. The solution was emulsified in an equal volume of incomplete Freund's adjuvant. A total volume of 0.5 ml of the cold emulsion was injected intradermally at several sites on the back and one or two sites into the tail of female Lewis rats. The FR-900506 substance was dissolved in olive oil and administered orally. Control rats immunized with same amount of type II collagen received oral administrations of olive oil alone. Incidences of the arthritis were observed.

[4] = tested on: Local Graft-versus-Host Reaction in BDF1 mice; test: Local Graft-versus-Host Reaction (GvHR) in Mice; format: in vivo; details: Mus musculus, po; orally for five days; weight difference right and left popliteal lymph nodes, day 7; read-out: ED50 for prevention of the local graft-versus-host reaction
Method: The viable spleen cells ([…] cells) from C57BL/6 donors were injected subcutaneously into the right hind foot pad of BDF1 mice to induce local GvHR. The mice were killed 7 days later and both right (injected paw) and left (uninjected paw) popliteal lymph nodes (PLN) were weighed. The GVHR was expressed as the weight difference between right and left PLN. The FR-900506 substance was dissolved in olive oil and administered orally for five days starting on the same day as sensitization.

ddY mice = test: Acute toxicities in ddY mice by intraperitoneal injection; format: in vivo; details: ddY mice, intraperitoneal injection
[5] = tested on: Antibody formation to sheep erythrocytes (SRBC) in BDF1 mice; test: Antibody Formation in mice (haemagglutination test); format: in vivo, mouse
Method: Male BDF1 mice 6 to 8 weeks of age were used for this test. The mice were immunized on day 0 with […] sheep erythrocytes (SRBC) intraperitoneally. Serum aggulutinin titers were determined for each individual animal with sedimentation of erythrocytes by serial two fold dilutions. The titers are expressed as -log2 The FR-900506 substance was administered orally for 5 days from one day before immunization to day 3.

[6] = tested on: Contact-Delayed Hypersensitivity in ICR mice; test: Contact-Delayed Hypersensitivity in mice (picryl chloride); format: in vivo, mouse
Method: Female ICR mice were used for this test. A tenth of a 7% (w/v) solution of picryl chloride in ethanol prepared at the time of the experiment was applied to the ventral surface of previously shaved animals. Such a sensitization was performed twice at intervals of 7 days. Seven days later, the thickness of the ears were measured with an ordinary engineer's micrometer and a 1% (w/v) solution of picryl chloride in olive oil was painted to both surfaces of each ear. The inflammation was evaluated 24 hours later by measuring the both of ears. The results were expressed as the average increase in thickness of the ears measured in units of 10 ^−3cm. The FR-900506 substance was injected for 14 days orally, starting from the first sensitization.

DTH to MBSA in BDF1 mice = test: Delayed Type Hypersensitivity (DTH) Response to methylated bovine serum albumin (MBSA); format: in vivo, mouse
Method: Female BDF1 mice were used for this test. The mice were sensitized with a subcutaneous injection of 0.1 ml emulsion consisting of equal volume of MBSA (2 mg/ml) and Freund's incomplete adjuvant(FIA). Seven days later, a 0.05 ml challenge dose of 0.4 mq/ml MIBSA in saline was injected into the plantar region of the right hind foot and 0.05 ml saline into the left hind foot to act as a control. Twenty four hours after challenge, both hind feet were measured with a dial gauge and the mean challenge in footpad thickness was measured. The FR-900506 substance was injected for 8 days orally, starting from the sensitization.

[7] = tested on: interleukin 3 and interferones; test: Lymphokine production in the supernatant of MLR; format: cell-based, mouse; details: especially y-interferone
Method: The mixed lymphocyte reaction (MILR) was performed in microtiter plates, with each well containing 5 ×10^5 C57BL/6 responder cells (H-2^b), 5 ×10^5 mitomycin C treated (25 μg/ml mitomycin C at 37° C. for 30 minutes and washed three times pith RPMI 1640 medium) BALB/C stimulator cells ([…]) in 0.2 ml RPMI 1640 medium supplemented with 10% fetal calf serum, 2mM sodium hydrogen carbonate, penicillin 20 (50 unites/ml) and streptomycin (50 μg/ml) . The cells were incubated at 37° C. in humidified atmosphere of 5% carbon dioxide and 95% of air for 48 hours and the supernatant was collected. The FR-900506 substance was dissolved in ethanol and further diluted in RPMI 1640 medium and added to the cultures to give final concentrations of 0.1 μg/ml or less.

In the case of `C=CCC1/C=C(\C)CC(C)CC(OC)C2OC(O)(C(=O)C(=O)N3CCCCC3C(=O)OC(/C(C)=C/C3CCC(O)C(OC)C3)C(C)C(O)CC1=O)C(C)CC2OC` (stereo not drawn) [FR-900506, 17-Allyl-1,14-dihydroxy-12-[2-(4-hydroxy-3-methoxycyclohexyl)-1-methyvinyl]-23-25-dimethoxy-13,19,21,27-tetramethyl-11,28-dioxa-4-azatricyclo[22.3.1.0^4,9]octacos-18-ene-2,3,10,16-tetraone], the “Radioactivities (mean C.P.M. ± S.E.)” value ([1]; 0.078 ng/ml) is reported as 7189 ± 365 C.P.M, the “Suppression (%)” value ([1]; 0.078 ng/ml) is reported as 27.6% and the “Radioactivities (mean C.P.M. ± S.E.)” value ([1]; 0.156 ng/ml) is reported as 5490 ± 431 C.P.M. For the same compound, the “Suppression (%)” value ([1]; 0.156 ng/ml) was 44.7%, the “Radioactivities (mean C.P.M. ± S.E.)” value ([1]; 0.313 ng/ml) was 3880 ± 222 C.P.M and the “Suppression (%)” value ([1]; 0.313 ng/ml) was 60.9%. The “Radioactivities (mean C.P.M. ± S.E.)” value ([1]; 0.625 ng/ml) was 614 ± 57 C.P.M, the “Suppression (%)” value ([1]; 0.625 ng/ml) was 93.8% and the “Radioactivities (mean C.P.M. ± S.E.)” value ([1]; 1.25 ng/ml) was 168 ± 23 C.P.M. For the same compound, the “Suppression (%)” value ([1]; 1.25 ng/ml) was 98.3%, the “Radioactivities (mean C.P.M. ± S.E.)” value ([1]; 2.5 ng/ml) was 54 ± 4 C.P.M and the “Suppression (%)” value ([1]; 2.5 ng/ml) was 99.5%. It also gave an IC50 ([1]; Lymphocyte, mouse MLR, 68 hours, 3H-thymidine) of 0.26 ng/mL (≈ 0.000323 µM), an MIC [2] of 0.025 µg/mL (≈ 0.0311 µM) and an MIC (Fusarium oxysporum) of 0.05 µg/mL (≈ 0.0622 µM). For the same compound, the “Incidence of Arthritis” value ([3]; 3.2 mg/kg per day orally for 14 days) was 0/5, the “Suppression of arthritis induction (in words)” value ([3]; daily treatment for 14 days) was “complete suppression of arthritis induction” and the ED50 [4] was 19 mg/kg. The “the dead at dose of 100 mg/kg” value (ddY mice) was “could not be observed”, the “Haemagglutination Mean log2 titer ± SE” value ([5]; 10 mg/kg orally for 5 days) was 7.6 ± 0.4 and the “Haemagglutination Mean log2 titer ± SE” value ([5]; 32 mg/kg orally for 5 days) was 6.0 ± 0.45. The “Haemagglutination Mean log2 titer ± SE” value ([5]; 100 mg/kg orally for 5 days) was 4.4 ± 0.75, the ED50 ([5]; Erythrocyte, po, orally for 5 days from one day before immunization to day 3) was 16.9 mg/kg and the “Increase of ears at 24 hours after challenge” value ([6]; 32 mg/kg orally for 14 days) was 6.4 ± 1.6 × 10^−3 cm. For the same compound, the “Increase of ears at 24 hours after challenge” value ([6]; 100 mg/kg orally for 14 days) was 2.2 ± 1.5 × 10^−3 cm, the “Footpad Swelling” value (DTH to MBSA in BDF1 mice; 10 mg/kg orally for 8 days) was 31.0 ± 4.4 × 10^−3 cm and the “Footpad Swelling” value (DTH to MBSA in BDF1 mice; 32 mg/kg orally for 8 days) was 20.8 ± 4.4 × 10^−3 cm. For the same compound, the “Footpad Swelling” value (DTH to MBSA in BDF1 mice; 100 mg/kg orally for 8 days) was 7.8 ± 1.6 × 10^−3 cm, the ED50 (DTH to MBSA in BDF1 mice; Mus musculus, po, 192 h, orally for 8 days starting from the sensitization) was 18.4 mg/kg and the “Lymphokine production (in words)” value [7] was “inhibited lymphokine production such as interleukin 3 and interferones”.
